Measured values taken from patent publication US20260007613A1, “LONG-ACTING LOW-TOXICITY NOVEL CATIONIC LIPID COMPOUNDS AND COMPOSITION THEREOF” (BEIJING YOUCAREKECHUANG PHARMACEUTICAL TECHNOLOGY CO., LTD., priority 2023, published 2026).
Where “and” joins values, the source holds several entries; their conditions need not be identical. Equal entries are not always repeated.

Experiments:
female BALB/C mice = assay: Live imaging in mice: protein expression of Fluc-mRNA delivered by LNP formulations; type: in vivo; settings: for average radiation intensity, times that of ALC-0315: comparator ALC-0315; for average radiation intensity, times that of HHMA: comparator HHMA; for average radiation intensity, times that of SM-102: comparator SM-102; for expression of mRNA in mice, times that of YK-302: comparator YK-302; for expression amount, times that of YK-321: comparator YK-321; for average radiation intensity, times that of compound 21: comparator compound 21; for average radiation intensity, times that of compound 23: comparator compound 23
Method in brief: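 Female BALB/C mice (4-6 weeks, 17-19 g) received LNP-formulated Fluc-mRNA […] intramuscularly. At 6 h, 24 h, 48 h and 7 d, luciferase substrate given intraperitoneally, and after 5 min average radiance measured by IVIS whole-body imaging.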

293T cells [1] = assay: Cell survival rate determination (CCK-8); type: cell-based; settings: difference of survival rates
Method in brief: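 Readout was CCK-8 absorbance (450 nm, 1 h) taken after a 24 h exposure of overnight-adhered 293T cells (10,000 per well, 96-well) to Lipofectamine 3000 or to LNPs carrying Fluc-mRNA, lipid molar ratio 49:10:39.5:1.5 cationic/neutral/structured/polymer-conjugated.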

[2] = Particle size and polydispersity index (PDI) of lipid nanoparticles by dynamic light scattering; type: physicochemical; settings: LNP formulation prepared from the cationic lipid, 25° C.
Protocol: The particle size and polydispersity index (PDI) were determined by dynamic light scattering using Malvern laser particle size analyzer.
10 μL of the liposome solution was weighed, diluted to 1 mL with RNase-free deionized water, and added to the sample pool. Each sample was measured in triplicate. The measurement conditions were: […] scattering angle, and 25° C.

293T cells [3] = assay: Fluorescent detection of Fluc-mRNA (cell transfection efficiency of LNP formulations); type: cell-based
Method in brief: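 Transfection read-out: IVIS imaging after […], 24 h after adding LNPs (lipid molar ratio 49:10:39.5:1.5 cationic/neutral/structured/polymer-lipid; […] Fluc-mRNA). Adherent 293T cells were seeded overnight at 10,000 per well beforehand.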

liver = assay: Distribution of liposomes in mice: protein expression in the liver (live imaging); type: in vivo; settings: at 6 h
Method in brief: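 Female BALB/C mice (4–6 weeks, 17–19 g) received LNP carrying […] Fluc-mRNA intramuscularly. At 6 h, 24 h, 48 h and 7 d, the luciferase substrate was given intraperitoneally. After 5 min of free movement, average radiance was imaged with IVIS Spectrum.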

Compound: CCCCCCC(CCCCCC)CCOC(=O)CCCCCCN(CCCCCCC(=O)OCCC(CCCCCC)CCCCCC)C[C@H](O)CN(CCO)CCO [YK-319]
- average radiation intensity, times that of ALC-0315 (female BALB/C mice; 6 h): 9.53 times
- average radiation intensity, times that of HHMA (female BALB/C mice; 6 h): 12.64 times
- average radiation intensity, times that of SM-102 (female BALB/C mice; 6 h): 11.74 times
- expression of mRNA in mice, times that of YK-302 (female BALB/C mice; 6 h): 564.51 times
- expression amount, times that of YK-321 (female BALB/C mice; 6 h): 15.96 times
- average radiation intensity, times that of compound 21 (female BALB/C mice; 6 h): 13.49 times
- average radiation intensity, times that of compound 23 (female BALB/C mice; 6 h): 13.96 times
- average radiation intensity (female BALB/C mice; 6 h after intramuscular injection): 8230500
- average radiation intensity, times that of ALC-0315 (female BALB/C mice; 24 h): 12.78 times
- average radiation intensity, times that of HHMA (female BALB/C mice; 24 h): 20.29 times
- average radiation intensity, times that of SM-102 (female BALB/C mice; 24 h): 20.20 times
- expression of mRNA in mice, times that of YK-302 (female BALB/C mice; 24 h): 615.26 times
- expression amount, times that of YK-321 (female BALB/C mice; 24 h): 24.04 times
- average radiation intensity, times that of compound 21 (female BALB/C mice; 24 h): 22.16 times
- average radiation intensity, times that of compound 23 (female BALB/C mice; 24 h): 23.28 times
- average radiation intensity (female BALB/C mice; 24 h after intramuscular injection): 2433960
- average radiation intensity, times that of ALC-0315 (female BALB/C mice; 48 h): 22.30 times
- average radiation intensity, times that of HHMA (female BALB/C mice; 48 h): 27.27 times
- average radiation intensity, times that of SM-102 (female BALB/C mice; 48 h): 27.27 times
- expression of mRNA in mice, times that of YK-302 (female BALB/C mice; 48 h): 866.03 times
- expression amount, times that of YK-321 (female BALB/C mice; 48 h): 24.28 times
- average radiation intensity, times that of compound 21 (female BALB/C mice; 48 h): 28.65 times
- average radiation intensity, times that of compound 23 (female BALB/C mice; 48 h): 26.80 times
- average radiation intensity (female BALB/C mice; 48 h after intramuscular injection): 887680
- average radiation intensity, times that of ALC-0315 (female BALB/C mice; 7 d): 14.88 times
- average radiation intensity, times that of HHMA (female BALB/C mice; 7 d): 17.86 times
- average radiation intensity, times that of SM-102 (female BALB/C mice; 7 d): 15.84 times
- expression of mRNA in mice, times that of YK-302 (female BALB/C mice; 7 d): 273.07 times
- expression amount, times that of YK-321 (female BALB/C mice; 7 d): 15.92 times
- average radiation intensity, times that of compound 21 (female BALB/C mice; 7 d): 16.27 times
- average radiation intensity, times that of compound 23 (female BALB/C mice; 7 d): 16.80 times
- average radiation intensity (female BALB/C mice; 7 d after intramuscular injection): 104860
- cell survival rate higher than ALC-0315 (293T cells [1]; comparator ALC-0315): 24.18%
- cell survival rate higher than HHMA (293T cells [1]; comparator HHMA): 8.74%
- cell survival rate higher than Lipofectamine 3000 (293T cells [1]; comparator Lipofectamine 3000): 50.20%
- cell survival rate higher than SM-102 (293T cells [1]; comparator SM-102): 5.76%
- cell survival rate higher than YK-301 (293T cells [1]; comparator YK-301): 22.25%
- cell survival rate higher than YK-302 (293T cells [1]; comparator YK-302): 58.78%
- cell survival rate higher than YK-303 (293T cells [1]; comparator YK-303): 11.89%
- cell survival rate higher than YK-304 (293T cells [1]; comparator YK-304): 41.05%
- cell survival rate higher than YK-306 (293T cells [1]; comparator YK-306): 33.02%
- cell survival rate higher than YK-307 (293T cells [1]; comparator YK-307): 14.07%
- cell survival rate higher than YK-308 (293T cells [1]; comparator YK-308): 4.22%
- cell survival rate higher than YK-309 (293T cells [1]; comparator YK-309): 43.60%
- cell survival rate higher than YK-311 (293T cells [1]; comparator YK-311): 5.15%
- cell survival rate higher than YK-313 (293T cells [1]; comparator YK-313): 6.28%
- cell survival rate higher than YK-314 (293T cells [1]; comparator YK-314): 7.33%
- cell survival rate higher than YK-315 (293T cells [1]; comparator YK-315): 3.93%
- cell survival rate higher than YK-316 (293T cells [1]; comparator YK-316): 4.68%
- cell survival rate higher than YK-317 (293T cells [1]; comparator YK-317): 16.03%
- cell survival rate higher than YK-320 (293T cells [1]; comparator YK-320): 4.14%
- cell survival rate higher than YK-321 (293T cells [1]; comparator YK-321): 2.87%
- cell survival rate higher than compound 21 (293T cells [1]; comparator compound 21): 5.00%
- cell survival rate higher than compound 23 (293T cells [1]; comparator compound 23): 3.71%
- PDI (%) [2]: 11.7%
- Particle size (nm) [2]: 200 nm
- Relative light unit (RLU) (293T cells [3]; LNP formulation of Fluc-mRNA, 96-well plate, 24 hours): 24467760 RLU
- Multiples (YK-305) (293T cells [3]; RLU of YK-305 / RLU of the lipid of the line): 1.12
- Multiples (YK-310) (293T cells [3]; RLU of YK-310 / RLU of the lipid of the line): 1.05
- Multiples (YK-312) (293T cells [3]; RLU of YK-312 / RLU of the lipid of the line): 0.82
- Multiples (YK-318) (293T cells [3]; RLU of YK-318 / RLU of the lipid of the line, Tables 5, 7, 11): 0.46
- Multiples (YK-319) (293T cells [3]; RLU of YK-319 / RLU of the lipid of the line, Tables 5, 7, 11): 1.00
- Ratio relative to SM-102 (293T cells [3]; RLU of the lipid / RLU of SM-102, times that of SM-102): 15.25
- cell transfection efficiency, times that of ALC-0315 (293T cells [3]; comparator ALC-0315): 12.03 times
- cell transfection efficiency, times that of HHMA (293T cells [3]; comparator HHMA): 12.20 times
- cell transfection efficiency, times that of Lipofectamine 3000 (293T cells [3]; comparator Lipofectamine 3000): 20.63 times
- cell transfection efficiency, times that of YK-009 (293T cells [3]; comparator YK-009): 4.78 times
- cell transfection efficiency, times that of YK-301 (293T cells [3]; comparator YK-301): 29.04 times
- cell transfection efficiency, times that of YK-302 (293T cells [3]; comparator YK-302): 880.83 times
- cell transfection efficiency, times that of YK-303 (293T cells [3]; comparator YK-303): 39.07 times
- cell transfection efficiency, times that of YK-304 (293T cells [3]; comparator YK-304): ~1100 times and 1182.82 times
- cell transfection efficiency, times that of YK-306 (293T cells [3]; comparator YK-306): 11.14 times
- cell transfection efficiency, times that of YK-307 (293T cells [3]; comparator YK-307): 5.37 times
- cell transfection efficiency, times that of YK-308 (293T cells [3]; comparator YK-308): 2.22 times
- cell transfection efficiency, times that of YK-309 (293T cells [3]; comparator YK-309): ~190 times and 195.16 times
- cell transfection efficiency, times that of YK-311 (293T cells [3]; comparator YK-311): 12.46 times
- cell transfection efficiency, times that of YK-313 (293T cells [3]; comparator YK-313): 28.24 times
- cell transfection efficiency, times that of YK-314 (293T cells [3]; comparator YK-314): 44.70 times
- cell transfection efficiency, times that of YK-315 (293T cells [3]; comparator YK-315): 15.42 times
- cell transfection efficiency, times that of YK-316 (293T cells [3]; comparator YK-316): 5.09 times
- cell transfection efficiency, times that of YK-317 (293T cells [3]; comparator YK-317): 6.79 times
- cell transfection efficiency, times that of YK-320 (293T cells [3]; comparator YK-320): 9.05 times
- cell transfection efficiency, times that of YK-321 (293T cells [3]; comparator YK-321): 17.43 times
- cell transfection efficiency, times that of compound 21 (293T cells [3]; comparator compound 21): 17.08 times
- cell transfection efficiency, times that of compound 23 (293T cells [3]; comparator compound 23): 18.04 times
- expression amount in the liver compared with ALC-0315 and SM-102 (liver): reduced
- protein expression in the liver (liver; intramuscular injection): had protein expression in the liver
